The supplement of paper PMC10883282

How the values were obtained:
Test in all cases: standardised AUC of viability dose-response curve (72 h) (fraction (0-1)); higher = less growth inhibition (more resistant)
[1] = tested on: MES-SA
Method in brief: (§1)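 In 384-well plates, sarcoma cell lines were exposed for 72 h, in triplicate, to 2.5 µl of a 1:3 compound dilution series whose compound-plate concentrations ran from 10 mM to 0.0002 mM. Four-parameter log-logistic models were fitted per drug and cell line to ATPLite viability, scaled 1 (full) to 0 (none). From these fits, a modified drexplorer computeAUC gave the standardised area under the curve in log-dose space. Here 1 marks no response and 0 full response.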

[2] = tested on: KHOS-NP
Method in brief: as §1

[3] = tested on: SYO-1
Method in brief: as §1

[4] = tested on: A204
Method in brief: as §1

[5] = tested on: SW684
Method in brief: as §1

[6] = tested on: SW982
Method in brief: as §1

[7] = tested on: SK-ES-1
Method in brief: as §1

[8] = tested on: SW872
Method in brief: as §1

[9] = tested on: KHOS-240S
Method in brief: as §1

[10] = tested on: SW1353
Method in brief: as §1

[11] = tested on: SK-LMS-1
Method in brief: as §1

[12] = tested on: G401
Method in brief: as §1

[13] = tested on: VA-ES-BJ
Method in brief: as §1

[14] = tested on: HT1080
Method in brief: as §1

[15] = tested on: RD
Method in brief: as §1

[16] = tested on: HS729
Method in brief: as §1

[17] = tested on: RD-ES
Method in brief: as §1

Compound: N#CCC1(n2cc(-c3ncnc4[nH]ccc34)cn2)CN(C2CCN(C(=O)c3ccnc(C(F)(F)F)c3F)CC2)C1 [ITACITINIB]
- standardised AUC [1]: 0.977
- standardised AUC [2]: 0.946
- standardised AUC [3]: 0.867
- standardised AUC [4]: 0.965
- standardised AUC [5]: 0.983
- standardised AUC [6]: 0.974
- standardised AUC [7]: 0.969
- standardised AUC [8]: 0.922
- standardised AUC [9]: 0.96
- standardised AUC [10]: 0.95
- standardised AUC [11]: 0.948
- standardised AUC [12]: 0.968
- standardised AUC [13]: 0.948
- standardised AUC [14]: 0.977
- standardised AUC [15]: 0.997
- standardised AUC [16]: 0.853
- standardised AUC [17]: 0.975

Compound: N#Cc1ccnc(N2C(=O)CC[C@H]2C(=O)N(c2cncc(F)c2)[C@H](C(=O)NC2CC(F)(F)C2)c2ccccc2Cl)c1 [IVOSIDENIB]
- standardised AUC [1]: 0.999
- standardised AUC [2]: 0.993
- standardised AUC [3]: 0.985
- standardised AUC [4]: 0.972
- standardised AUC [5]: 0.993
- standardised AUC [6]: 0.974
- standardised AUC [7]: 0.997
- standardised AUC [8]: 1
- standardised AUC [9]: 0.988
- standardised AUC [10]: 0.993
- standardised AUC [11]: 0.977
- standardised AUC [12]: 0.981
- standardised AUC [13]: 0.987
- standardised AUC [14]: 1
- standardised AUC [15]: 0.992
- standardised AUC [16]: 0.986
- standardised AUC [17]: 0.988

Compound: COc1cc2nccc(Oc3ccc(NC(=O)NC4CC4)c(Cl)c3)c2cc1C(N)=O [LENVATINIB]
- standardised AUC [1]: 0.911
- standardised AUC [2]: 1
- standardised AUC [3]: 0.701
- standardised AUC [4]: 0.587
- standardised AUC [5]: 0.992
- standardised AUC [6]: 0.966
- standardised AUC [7]: 0.898
- standardised AUC [8]: 0.978
- standardised AUC [9]: 0.888
- standardised AUC [10]: 0.914
- standardised AUC [11]: 0.984
- standardised AUC [12]: 0.845
- standardised AUC [13]: 1
- standardised AUC [14]: 0.995
- standardised AUC [15]: 0.999
- standardised AUC [16]: 0.866
- standardised AUC [17]: 0.937

Compound: C[C@H]1Oc2cc(cnc2N)-c2c(nn(C)c2C#N)CN(C)C(=O)c2ccc(F)cc21 [LORLATINIB]
- standardised AUC [1]: 0.951
- standardised AUC [2]: 0.957
- standardised AUC [3]: 0.895
- standardised AUC [4]: 0.959
- standardised AUC [5]: 0.983
- standardised AUC [6]: 0.887
- standardised AUC [7]: 0.963
- standardised AUC [8]: 0.861
- standardised AUC [9]: 0.953
- standardised AUC [10]: 0.928
- standardised AUC [11]: 0.952
- standardised AUC [12]: 0.96
- standardised AUC [13]: 0.941
- standardised AUC [14]: 0.977
- standardised AUC [15]: 0.926
- standardised AUC [16]: 0.871
- standardised AUC [17]: 0.932

Compound: Cc1c(F)cc(C(=O)NC2CC2)cc1-c1ccc(C(=O)NCC(C)(C)C)cn1 [LOSMAPIMOD]
- standardised AUC [1]: 0.944
- standardised AUC [2]: 0.999
- standardised AUC [3]: 0.933
- standardised AUC [4]: 0.977
- standardised AUC [5]: 0.995
- standardised AUC [6]: 0.991
- standardised AUC [7]: 0.929
- standardised AUC [8]: 0.992
- standardised AUC [9]: 0.944
- standardised AUC [10]: 0.993
- standardised AUC [11]: 0.973
- standardised AUC [12]: 0.941
- standardised AUC [13]: 0.941
- standardised AUC [14]: 0.999
- standardised AUC [15]: 0.981
- standardised AUC [16]: 0.87
- standardised AUC [17]: 0.95

Compound: CO[C@@H]1[C@H](N(C)C(=O)c2ccccc2)C[C@H]2O[C@]1(C)n1c3ccccc3c3c4c(c5c6ccccc6n2c5c31)C(=O)NC4 [MIDOSTAURIN]
- standardised AUC [1]: 0.731
- standardised AUC [2]: 0.812
- standardised AUC [3]: 0.642
- standardised AUC [4]: 0.715
- standardised AUC [5]: 0.835
- standardised AUC [6]: 0.709
- standardised AUC [7]: 0.689
- standardised AUC [8]: 0.757
- standardised AUC [9]: 0.709
- standardised AUC [10]: 0.733
- standardised AUC [11]: 0.773
- standardised AUC [12]: 0.778
- standardised AUC [13]: 0.785
- standardised AUC [14]: 0.8
- standardised AUC [15]: 0.81
- standardised AUC [16]: 0.796
- standardised AUC [17]: 0.764

Compound: Cc1ccc(C(=O)OCc2ccc([C@@H](CN)C(=O)Nc3ccc4cnccc4c3)cc2)c(C)c1 [NETARSUDIL]
- standardised AUC [1]: 0.857
- standardised AUC [2]: 0.951
- standardised AUC [3]: 0.884
- standardised AUC [4]: 0.85
- standardised AUC [5]: 0.926
- standardised AUC [6]: 0.91
- standardised AUC [7]: 0.921
- standardised AUC [8]: 0.893
- standardised AUC [9]: 0.828
- standardised AUC [10]: 0.855
- standardised AUC [11]: 0.886
- standardised AUC [12]: 0.949
- standardised AUC [13]: 0.985
- standardised AUC [14]: 0.952
- standardised AUC [15]: 0.923
- standardised AUC [16]: 0.966
- standardised AUC [17]: 0.914

Compound: Cc1cn(-c2cc(NC(=O)c3ccc(C)c(Nc4nccc(-c5cccnc5)n4)c3)cc(C(F)(F)F)c2)cn1 [NILOTINIB]
- standardised AUC [1]: 0.957
- standardised AUC [2]: 0.989
- standardised AUC [3]: 0.843
- standardised AUC [4]: 0.799
- standardised AUC [5]: 1
- standardised AUC [6]: 0.976
- standardised AUC [7]: 0.909
- standardised AUC [8]: 0.971
- standardised AUC [9]: 0.947
- standardised AUC [10]: 0.996
- standardised AUC [11]: 1
- standardised AUC [12]: 0.954
- standardised AUC [13]: 0.981
- standardised AUC [14]: 0.972
- standardised AUC [15]: 0.926
- standardised AUC [16]: 0.917
- standardised AUC [17]: 0.949

Compound: NC(=O)c1cccc2cn(-c3ccc([C@@H]4CCCNC4)cc3)nc12 [NIRAPARIB]
- standardised AUC [1]: 0.961
- standardised AUC [2]: 1
- standardised AUC [3]: 0.842
- standardised AUC [4]: 0.949
- standardised AUC [5]: 0.989
- standardised AUC [6]: 0.94
- standardised AUC [7]: 0.8
- standardised AUC [8]: 1
- standardised AUC [9]: 0.983
- standardised AUC [10]: 0.966
- standardised AUC [11]: 0.979
- standardised AUC [12]: 0.971
- standardised AUC [13]: 0.966
- standardised AUC [14]: 0.999
- standardised AUC [15]: 0.956
- standardised AUC [16]: 0.977
- standardised AUC [17]: 0.874

Compound: C=CC(=O)Nc1cc(Nc2nccc(-c3cn(C)c4ccccc34)n2)c(OC)cc1N(C)CCN(C)C [OSIMERTINIB]
- standardised AUC [1]: 0.893
- standardised AUC [2]: 0.974
- standardised AUC [3]: 0.798
- standardised AUC [4]: 0.873
- standardised AUC [5]: 0.939
- standardised AUC [6]: 0.907
- standardised AUC [7]: 0.847
- standardised AUC [8]: 0.918
- standardised AUC [9]: 0.923
- standardised AUC [10]: 0.919
- standardised AUC [11]: 0.925
- standardised AUC [12]: 0.904
- standardised AUC [13]: 0.916
- standardised AUC [14]: 0.938
- standardised AUC [15]: 0.921
- standardised AUC [16]: 0.874
- standardised AUC [17]: 0.89

Compound: C1=N/C2=N/c3ccc(OCCN4CCCC4)c(c3)COC/C=C/COCc3cccc(c3)C(=C1)N2 [PACRITINIB]
- standardised AUC [1]: 0.787
- standardised AUC [2]: 0.898
- standardised AUC [3]: 0.747
- standardised AUC [4]: 0.736
- standardised AUC [5]: 0.758
- standardised AUC [6]: 0.733
- standardised AUC [7]: 0.714
- standardised AUC [8]: 0.786
- standardised AUC [9]: 0.811
- standardised AUC [10]: 0.836
- standardised AUC [11]: 0.897
- standardised AUC [12]: 0.793
- standardised AUC [13]: 0.753
- standardised AUC [14]: 0.853
- standardised AUC [15]: 0.781
- standardised AUC [16]: 0.855
- standardised AUC [17]: 0.792

Compound: NC(=O)c1cnc2[nH]ccc2c1N[C@@H]1[C@@H]2CC3C[C@H]1C[C@@](O)(C3)C2 [PEFICITINIB]
- standardised AUC [1]: 0.949
- standardised AUC [2]: 0.982
- standardised AUC [3]: 0.888
- standardised AUC [4]: 0.912
- standardised AUC [5]: 0.988
- standardised AUC [6]: 0.929
- standardised AUC [7]: 0.938
- standardised AUC [8]: 0.977
- standardised AUC [9]: 0.955
- standardised AUC [10]: 1
- standardised AUC [11]: 0.985
- standardised AUC [12]: 1
- standardised AUC [13]: 0.995
- standardised AUC [14]: 1
- standardised AUC [15]: 1
- standardised AUC [16]: 0.988
- standardised AUC [17]: 0.983

Compound: CCCCCCCCCCCCCCCCCCOP(=O)([O-])OC1CC[N+](C)(C)CC1 [PERIFOSINE]
- standardised AUC [1]: 0.954
- standardised AUC [2]: 0.966
- standardised AUC [3]: 0.946
- standardised AUC [4]: 0.982
- standardised AUC [5]: 0.999
- standardised AUC [6]: 0.99
- standardised AUC [7]: 0.952
- standardised AUC [8]: 0.915
- standardised AUC [9]: 0.983
- standardised AUC [10]: 0.962
- standardised AUC [11]: 0.941
- standardised AUC [12]: 0.994
- standardised AUC [13]: 0.968
- standardised AUC [14]: 0.966
- standardised AUC [15]: 0.996
- standardised AUC [16]: 0.924
- standardised AUC [17]: 0.994
